{"source": "paper PMC10066365", "about": "“Nemacol is a small molecule inhibitor of C. elegans vesicular acetylcholine transporter with anthelmintic potential” (Nature Communications, 2023)", "key": {"[1]": {"system": "Dirofilaria immitis L3/L4", "test": "Dirofilaria immitis L3/L4 motility assay (DiroImager, 72 h)"}, "[2]": {"system": "C. elegans", "test": "Suppression of trichlorfon (AChE inhibitor) paralysis, double dose-response, scored after 80 min", "assay_type": "in vivo, Caenorhabditis elegans", "settings": "wild-type, bio rep 1-3"}, "[3]": {"system": "Dirofilaria immitis microfilariae", "test": "Dirofilaria immitis microfilariae immobility assay (DiroImager, 72 h)", "in_short": "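About 250 freshly purified microfilariae of the Missouri isolate per well in supplemented RPMI 1640, exposed to compound for 72 h. Motility scored by automated whole-plate optical imaging; medium with 1% DMSO as negative control.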"}, "[4]": {"target": "T1, rat VAChT (Rattus norvegicus, UniProt Q62666)", "T1 construct": "expressed in transfected cells; host or cells: rat PC12 (PC12 A123.7) cells, stably transfected; shared by Dr. Ali Roghani (Texas Tech University)", "T1 sequence (Q62666 1-530)": "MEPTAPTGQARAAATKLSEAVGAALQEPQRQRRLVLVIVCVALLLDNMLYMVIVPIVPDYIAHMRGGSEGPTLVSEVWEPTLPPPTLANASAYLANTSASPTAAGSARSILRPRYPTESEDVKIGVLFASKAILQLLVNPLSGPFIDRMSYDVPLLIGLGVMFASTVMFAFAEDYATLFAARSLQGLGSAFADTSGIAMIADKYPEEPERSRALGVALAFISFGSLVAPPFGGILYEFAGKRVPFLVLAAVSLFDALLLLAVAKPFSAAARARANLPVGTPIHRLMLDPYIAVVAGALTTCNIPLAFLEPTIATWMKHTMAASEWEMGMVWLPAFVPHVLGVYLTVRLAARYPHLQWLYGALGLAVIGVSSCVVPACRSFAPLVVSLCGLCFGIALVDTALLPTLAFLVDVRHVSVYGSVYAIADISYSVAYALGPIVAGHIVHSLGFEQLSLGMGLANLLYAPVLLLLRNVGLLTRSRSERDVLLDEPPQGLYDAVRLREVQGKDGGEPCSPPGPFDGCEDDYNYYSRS", "test": "[3H]Vesamicol competitive radioligand binding, PC12 cells expressing ratVAChT", "settings": "for specific binding in % of total binding (corrected by nonspecific binding NB), mean: rVAChT-PC12, 21°C, 1% DMSO"}}, "note": "Where “and” joins values, the source holds several entries; their conditions need not be identical. Identical values can stand only once.", "data": [{"smiles": "O=[N+]([O-])c1ccc(N2CCN(CC3CCCCC3)CC2)cc1", "note": "[Nemacol-1]", "values": [{"measurement": "activity against D. immitis (EC50)", "setting": "[1]", "value": "low micromolar activity"}, {"measurement": "% effect (motility), DIROIM L4", "setting": "[1]; 0.016 µM", "value": 0, "unit": "%"}, {"measurement": "% effect (motility), DIROIM L4", "setting": "[1]; 0.08 µM", "value": 0, "unit": "%"}, {"measurement": "% effect (motility), DIROIM L4", "setting": "[1]; 0.4 µM", "value": 0, "unit": "%"}, {"measurement": "% effect (motility), DIROIM L4", "setting": "[1]; 2 µM", "value": 5, "unit": "%"}, {"measurement": "% effect (motility), DIROIM L4", "setting": "[1]; 10 µM", "value": 100, "unit": "%"}, {"measurement": "% effect (motility), DIROIM L4", "setting": "[1]; 50 µM", "value": 100, "unit": "%"}, {"measurement": "% para (percentage of animals able to adopt a clear sinusoidal wave pattern upon touch on the nose)", "setting": "[2]; Nemacol-1 3.75 uM + trichlorfon 0 uM", "value": 100, "unit": "%"}, {"measurement": "% para (percentage of animals able to adopt a clear sinusoidal wave pattern upon touch on the nose)", "setting": "[2]; Nemacol-1 3.75 uM + trichlorfon 25 uM", "value": "96.4286% and 92.8571% and 100%"}, {"measurement": "% para (percentage of animals able to adopt a clear sinusoidal wave pattern upon touch on the nose)", "setting": "[2]; Nemacol-1 3.75 uM + trichlorfon 50 uM", "value": "96.4286% and 85.7143% and 75%"}, {"measurement": "% para (percentage of animals able to adopt a clear sinusoidal wave pattern upon touch on the nose)", "setting": "[2]; Nemacol-1 3.75 uM + trichlorfon 100 uM", "value": "28.5714% and 32.1429% and 39.2857%"}, {"measurement": "% para (percentage of animals able to adopt a clear sinusoidal wave pattern upon touch on the nose)", "setting": "[2]; Nemacol-1 3.75 uM + trichlorfon 200 uM", "value": "10.7143% and 7.143%"}, {"measurement": "% para (percentage of animals able to adopt a clear sinusoidal wave pattern upon touch on the nose)", "setting": "[2]; Nemacol-1 3.75 uM + trichlorfon 400 uM", "value": "3.571% and 0%"}, {"measurement": "% para (percentage of animals able to adopt a clear sinusoidal wave pattern upon touch on the nose)", "setting": "[2]; Nemacol-1 3.75 uM + trichlorfon 800 uM", "value": 0, "unit": "%"}, {"measurement": "% para (percentage of animals able to adopt a clear sinusoidal wave pattern upon touch on the nose)", "setting": "[2]; Nemacol-1 15 uM + trichlorfon 0 uM", "value": "96.4286% and 100%"}, {"measurement": "% para (percentage of animals able to adopt a clear sinusoidal wave pattern upon touch on the nose)", "setting": "[2]; Nemacol-1 15 uM + trichlorfon 25 uM", "value": 100, "unit": "%"}, {"measurement": "% para (percentage of animals able to adopt a clear sinusoidal wave pattern upon touch on the nose)", "setting": "[2]; Nemacol-1 15 uM + trichlorfon 50 uM", "value": "92.8571% and 46.4286% and 64.2857%"}, {"measurement": "% para (percentage of animals able to adopt a clear sinusoidal wave pattern upon touch on the nose)", "setting": "[2]; Nemacol-1 15 uM + trichlorfon 100 uM", "value": "82.1429% and 53.5714% and 71.4286%"}, {"measurement": "% para (percentage of animals able to adopt a clear sinusoidal wave pattern upon touch on the nose)", "setting": "[2]; Nemacol-1 15 uM + trichlorfon 400 uM", "value": "14.2857% and 7.143%"}, {"measurement": "% para (percentage of animals able to adopt a clear sinusoidal wave pattern upon touch on the nose)", "setting": "[2]; Nemacol-1 15 uM + trichlorfon 800 uM", "value": "0% and 3.571%"}, {"measurement": "% para (percentage of animals able to adopt a clear sinusoidal wave pattern upon touch on the nose)", "setting": "[2]; Nemacol-1 30 uM + trichlorfon 0 uM", "value": 100, "unit": "%"}, {"measurement": "% para (percentage of animals able to adopt a clear sinusoidal wave pattern upon touch on the nose)", "setting": "[2]; Nemacol-1 30 uM + trichlorfon 25 uM", "value": 100, "unit": "%"}, {"measurement": "% para (percentage of animals able to adopt a clear sinusoidal wave pattern upon touch on the nose)", "setting": "[2]; Nemacol-1 30 uM + trichlorfon 50 uM", "value": "85.7143% and 89.2857% and 92.8571%"}, {"measurement": "% para (percentage of animals able to adopt a clear sinusoidal wave pattern upon touch on the nose)", "setting": "[2]; Nemacol-1 30 uM + trichlorfon 100 uM", "value": "78.5714% and 82.1429%"}, {"measurement": "% para (percentage of animals able to adopt a clear sinusoidal wave pattern upon touch on the nose)", "setting": "[2]; Nemacol-1 30 uM + trichlorfon 200 uM", "value": "53.5714% and 32.1429% and 39.2857%"}, {"measurement": "% para (percentage of animals able to adopt a clear sinusoidal wave pattern upon touch on the nose)", "setting": "[2]; Nemacol-1 30 uM + trichlorfon 800 uM", "value": 3.571, "unit": "%"}, {"measurement": "% para (percentage of animals able to adopt a clear sinusoidal wave pattern upon touch on the nose)", "setting": "[2]; Nemacol-1 60 uM + trichlorfon 0 uM", "value": "50% and 82.1429% and 71.4286%"}, {"measurement": "% para (percentage of animals able to adopt a clear sinusoidal wave pattern upon touch on the nose)", "setting": "[2]; Nemacol-1 60 uM + trichlorfon 25 uM", "value": "85.7143% and 75% and 78.5714%"}, {"measurement": "% para (percentage of animals able to adopt a clear sinusoidal wave pattern upon touch on the nose)", "setting": "[2]; Nemacol-1 60 uM + trichlorfon 50 uM", "value": "78.5714% and 57.1429% and 67.8571%"}, {"measurement": "% para (percentage of animals able to adopt a clear sinusoidal wave pattern upon touch on the nose)", "setting": "[2]; Nemacol-1 60 uM + trichlorfon 100 uM", "value": "53.5714% and 67.8571%"}, {"measurement": "% para (percentage of animals able to adopt a clear sinusoidal wave pattern upon touch on the nose)", "setting": "[2]; Nemacol-1 60 uM + trichlorfon 200 uM", "value": "35.7143% and 57.1429% and 50%"}, {"measurement": "% para (percentage of animals able to adopt a clear sinusoidal wave pattern upon touch on the nose)", "setting": "[2]; Nemacol-1 60 uM + trichlorfon 800 uM", "value": "3.571% and 7.143%"}, {"measurement": "% para (percentage of animals able to adopt a clear sinusoidal wave pattern upon touch on the nose)", "setting": "[2]; Nemacol-1 […] + trichlorfon 25 uM", "value": 100, "unit": "%"}, {"measurement": "% para (percentage of animals able to adopt a clear sinusoidal wave pattern upon touch on the nose)", "setting": "[2]; Nemacol-1 […] + trichlorfon 800 uM", "value": 0, "unit": "%"}, {"measurement": "% effect (motility), DIROIM MF", "setting": "[3]; 0.016 µM", "value": 0, "unit": "%"}, {"measurement": "% effect (motility), DIROIM MF", "setting": "[3]; 0.08 µM", "value": 0, "unit": "%"}, {"measurement": "% effect (motility), DIROIM MF", "setting": "[3]; 0.4 µM", "value": 0, "unit": "%"}, {"measurement": "% effect (motility), DIROIM MF", "setting": "[3]; 2 µM", "value": 20, "unit": "%"}, {"measurement": "% effect (motility), DIROIM MF", "setting": "[3]; 10 µM", "value": 100, "unit": "%"}, {"measurement": "% effect (motility), DIROIM MF", "setting": "[3]; 50 µM", "value": 100, "unit": "%"}, {"measurement": "EC50", "setting": "[3]; Dirofilaria immitis, 72 h, read-out: Dirofilaria immitis filariae EC50", "value": 2200, "unit": "nM"}, {"measurement": "activity ratio, mammalian VAChT Ki to C. elegans in vivo EC50", "setting": "[4]", "value": 0.11}, {"measurement": "Ki", "setting": "[4]; Ki, each of two biological replicates", "value": "875 nM and 661 nM"}, {"measurement": "specific binding in % of total binding (corrected by nonspecific binding NB), mean", "setting": "[4]; competitor 1.00E-04 M, experiment 2019-11-21, 2.20E-09 M 3H-vesamicol, 90 min", "value": 2.84, "unit": "%"}, {"measurement": "specific binding in % of total binding (corrected by nonspecific binding NB), mean", "setting": "[4]; competitor 1.00E-05 M, experiment 2019-10-30, 2.92E-09 M 3H-vesamicol, 120 min", "value": 34, "unit": "%"}, {"measurement": "specific binding in % of total binding (corrected by nonspecific binding NB), mean", "setting": "[4]; competitor 1.00E-05 M, experiment 2019-11-21, 2.20E-09 M 3H-vesamicol, 90 min", "value": 10, "unit": "%"}, {"measurement": "specific binding in % of total binding (corrected by nonspecific binding NB), mean", "setting": "[4]; competitor 1.00E-06 M, experiment 2019-10-30, 2.92E-09 M 3H-vesamicol, 120 min", "value": 51, "unit": "%"}, {"measurement": "specific binding in % of total binding (corrected by nonspecific binding NB), mean", "setting": "[4]; competitor 1.00E-06 M, experiment 2019-11-21, 2.20E-09 M 3H-vesamicol, 90 min", "value": 52, "unit": "%"}, {"measurement": "specific binding in % of total binding (corrected by nonspecific binding NB), mean", "setting": "[4]; competitor 1.00E-07 M, experiment 2019-10-30, 2.92E-09 M 3H-vesamicol, 120 min", "value": 86, "unit": "%"}, {"measurement": "specific binding in % of total binding (corrected by nonspecific binding NB), mean", "setting": "[4]; competitor 1.00E-07 M, experiment 2019-11-21, 2.20E-09 M 3H-vesamicol, 90 min", "value": 82, "unit": "%"}, {"measurement": "specific binding in % of total binding (corrected by nonspecific binding NB), mean", "setting": "[4]; competitor 1.00E-08 M, experiment 2019-10-30, 2.92E-09 M 3H-vesamicol, 120 min", "value": 94, "unit": "%"}, {"measurement": "specific binding in % of total binding (corrected by nonspecific binding NB), mean", "setting": "[4]; competitor 1.00E-08 M, experiment 2019-11-21, 2.20E-09 M 3H-vesamicol, 90 min", "value": 90, "unit": "%"}, {"measurement": "specific binding in % of total binding (corrected by nonspecific binding NB), mean", "setting": "[4]; competitor 1.00E-09 M, experiment 2019-10-30, 2.92E-09 M 3H-vesamicol, 120 min", "value": 96, "unit": "%"}, {"measurement": "specific binding in % of total binding (corrected by nonspecific binding NB), mean", "setting": "[4]; competitor 1.00E-09 M, experiment 2019-11-21, 2.20E-09 M 3H-vesamicol, 90 min", "value": 88, "unit": "%"}, {"measurement": "specific binding in % of total binding (corrected by nonspecific binding NB), mean", "setting": "[4]; competitor 1.00E-10 M, experiment 2019-10-30, 2.92E-09 M 3H-vesamicol, 120 min", "value": 95, "unit": "%"}, {"measurement": "specific binding in % of total binding (corrected by nonspecific binding NB), mean", "setting": "[4]; competitor 1.00E-10 M, experiment 2019-11-21, 2.20E-09 M 3H-vesamicol, 90 min", "value": 92, "unit": "%"}, {"measurement": "specific binding in % of total binding (corrected by nonspecific binding NB), mean", "setting": "[4]; competitor 1.00E-11 M, experiment 2019-10-30, 2.92E-09 M 3H-vesamicol, 120 min", "value": 94, "unit": "%"}, {"measurement": "rat VAChT Ki fold difference to vesamicol", "setting": "[4]; fold less affinity than vesamicol", "value": 37, "unit": "fold"}, {"measurement": "Ki", "setting": "[4]; in vitro mammalian VAChT Ki", "value": 770, "unit": "nM"}, {"measurement": "Ki", "setting": "[4]; ratVAChT Ki, [3H]Vesamicol displacement, mean", "value": 768, "unit": "nM"}]}]}
